Assays:
[1] = system: human lymphocytes; test: tritiated thymidine uptake in primary mixed lymphocyte reaction; format: cell-based; settings: for incorporation of tritiated thymidine: Table IV
Description: The in vitro mixed lymphocyte assay described below is presently employed in the clinical setting as an indicator of histocompatibility, and is premised on the transformation of resting genetically dissimilar lymphocytes into cells which synthesize DNA and undergo proliferation.
(§1) The mixed lymphocyte reaction assay can be carried out by techniques well known to those skilled in the art. L. Hudson and F. C. Huy, Practical Immunology, p. 260, Blackwell Scientific Publications (1976). Briefly this consists of isolating lymphocytes from human peripheral blood by standard density gradient centrifugation techniques from two separate individuals. Approximately 2×10^5 lymphocytes of each individual are combined to yield a total of 4×10^5 lymphocytes per culture. All procedures are carried out under sterile conditions, and the lymphocytes are isolated and kept in physiologically compatible solutions. To the mixture of lymphocytes is added a desired amount of an appropriate succinylacetone derivative, and after different times an aliquot of the mixture is removed and assayed for IL-2 or IFN-γ, or ^3 H-T is measured.
As mentioned above, one measure of an immune response as reflected in a mixed lymphocyte assay is the stimulation of DNA synthesis, and a concomitant increase in cell number. Thus, to further ascertain the immunosuppressive activity of succinylacetonyl-proline-NH-PEG, its effect on inhibition of thymocyte growth, as detected by uptake of tritiated thymidine, was assayed.

[2] = system: adjuvant induced arthritis; test: adjuvant induced arthritis in rats, overall arthritis score; intraarticular right paw, per kg: succinylacetone 325 μg, methyl ester 150 μg, 4-acetyl-5-oxohexanoate 560 μg; format: in vivo, rat
[3] = system: IL-2 (human lymphoid cells); test: IL-2 production in primary mixed lymphocyte reaction (HT-2 cell assay); format: cell-based; design: IL-2: unit not given here; settings: for IL-2: 1° MLR
Protocol: as §1, with “Derivatives of succinylacetone were tested for immunosuppressive activity in several different types of assay systems. The first consisted of measuring the amounts of interleukin-2 (IL-2), and interferon-γ (IFN-γ) produced by human lymphoid cells in a mixed lymphocyte reaction. Low levels of these molecules in the reaction mixture indicate that the immune system is being suppressed by the subject succinylacetone derivatives. IL-2 was measured by enumerating the number of viable HT-2 cells found after an 18-24 hours period. HT-2 cells are a mouse IL-2 dependent cell line which die in the absence of IL-2. The assay is described by Gillis et al., J. of Immunol. […] The” for “The”, “260, Blackwell Scientific Publications (1976).” left out, “^[…]” for “^3 H-T”

[4] = system: human lymphoid cells; test: tritiated thymidine uptake in secondary mixed lymphocyte reaction; format: cell-based; settings: 2°-MLR; for inhibition at 740 µM / inhibition at 2200 µM / inhibition at 6700 µM / inhibition at 20000 µM: Homo sapiens, Lymphocyte
Protocol: In addition to testing the immunosuppressive activities of succinylacetone derivatives in a primary mixed lymphocyte reaction, or a phytohemagglutinin stimulation assay, two of the derivatives, succinylacetone methyl ester and methyl 4-acetyl-5-oxohexanoate, were tested in a secondary mixed lymphocyte reaction assay. The secondary mixed lymphocyte assays differs from the primary mixed lymphocyte reaction assays in that they employ many more primed responder cells that are responsive to the primary stimulating cells. The presence of such responsive cells is a reflection of immunological memory in an ongoing immunological response. […] These cells are then used in the secondary mixed lymphocyte reaction. It is worth noting that because a secondary mixed lymphocyte reaction is greatly enriched for responsive cells, fewer cells can be used in the secondary assay.
It will be appreciated that described therein is a method for carrying out secondary lymphocyte reactions using mouse cells, however such methods are generally applicable to performing secondary mixed lymphocyte reactions using human cells with modifications that are well known to those skilled in the art. […] The assays were conducted in duplicate involving lymphoid cells isolated from two individuals.

In the case of COC(=O)CCC(C(C)=O)C(C)=O [Methyl 4-Acetyl-5-Oxohexanoate, methyl 4-acetyl-5-oxohexanoate], the IC50 ([1]; Homo sapiens, Lymphocyte, primary MLR, read-out: concentration causing 50% inhibition in thymidine uptake) is reported as about 2200 µM, the “incorporation of tritiated thymidine” value ([1]; Exp I, 3 μM) is reported as 74259 and the “incorporation of tritiated thymidine” value ([1]; Exp I, 9 μM) is reported as 77627. For the same compound, the “incorporation of tritiated thymidine” value ([1]; Exp I, 27 μM) was 77634, the “incorporation of tritiated thymidine” value ([1]; Exp I, 81 μM) was 81881 and the “incorporation of tritiated thymidine” value ([1]; Exp I, 244 μM) was 48284. For the same compound, the “incorporation of tritiated thymidine” value ([1]; Exp I, 733 μM) was 67787, the “incorporation of tritiated thymidine” value ([1]; Exp I, 2.2 mM) was 29389 and the “incorporation of tritiated thymidine” value ([1]; Exp I, 6.7 mM) was 135. For the same compound, the “incorporation of tritiated thymidine” value ([1]; Exp I, 20 mM) was 163, the “incorporation of tritiated thymidine” value ([1]; Exp II, 3 μM) was 114713 and the “incorporation of tritiated thymidine” value ([1]; Exp II, 9 μM) was 117109. The “incorporation of tritiated thymidine” value ([1]; Exp II, 27 μM) was 112463, the “incorporation of tritiated thymidine” value ([1]; Exp II, 81 μM) was 113054 and the “incorporation of tritiated thymidine” value ([1]; Exp II, 244 μM) was 122672. For the same compound, the “incorporation of tritiated thymidine” value ([1]; Exp II, 733 μM) was 113732, the “incorporation of tritiated thymidine” value ([1]; Exp II, 2.2 mM) was 84363 and the “incorporation of tritiated thymidine” value ([1]; Exp II, 6.7 mM) was 21280. For the same compound, the “incorporation of tritiated thymidine” value ([1]; Exp II, 20 mM) was 109, the overall arthritis score ([2]; Exp. I (treated from same day), day 14) was 3.2 ± 2.2 and the overall arthritis score ([2]; Exp. I (treated from same day), day 16) was 3.4 ± 2.2. It also gave an overall arthritis score ([2]; Exp. I (treated from same day), day 18) of 5.0 ± 3.2, an overall arthritis score ([2]; Exp. I (treated from same day), day 20) of 7.0 ± 4.0 and an overall arthritis score ([2]; Exp. I (treated from same day), day 22) of 8.2 ± 4.9. For the same compound, the overall arthritis score ([2]; Exp. I (treated from same day), day 24) was 7.2 ± 4.2, the overall arthritis score ([2]; Exp. I (treated from same day), day 26) was 7.2 ± 4.2 and the overall arthritis score ([2]; Exp. II (treated from day 4), day 14) was 1.0 ± 1.4. For the same compound, the overall arthritis score ([2]; Exp. II (treated from day 4), day 16) was 2.2 ± 2.5, the overall arthritis score ([2]; Exp. II (treated from day 4), day 18) was 1.8 ± 1.8 and the overall arthritis score ([2]; Exp. II (treated from day 4), day 20) was 2.2 ± 2.0. For the same compound, the overall arthritis score ([2]; Exp. II (treated from day 4), day 22) was 5.0 ± 3.5, the overall arthritis score ([2]; Exp. II (treated from day 4), day 24) was 3.4 ± 3.6 and the overall arthritis score ([2]; Exp. II (treated from day 4), day 26) was 4.0 ± 3.7. It also gave an overall arthritis score ([2]; Exp. III (treated from day 14), day 14) of 2.0 ± 2.0, an overall arthritis score ([2]; Exp. III (treated from day 14), day 16) of 2.4 ± 1.5 and an overall arthritis score ([2]; Exp. III (treated from day 14), day 18) of 3.4 ± 2.6. The overall arthritis score ([2]; Exp. III (treated from day 14), day 20) was 5.6 ± 2.7, the overall arthritis score ([2]; Exp. III (treated from day 14), day 22) was 7.4 ± 4.8 and the overall arthritis score ([2]; Exp. III (treated from day 14), day 24) was 7.4 ± 5.3. For the same compound, the overall arthritis score ([2]; Exp. III (treated from day 14), day 26) was 7.4 ± 5.3, the effect on arthritis ([2]; comparison of treatment schedules, in words) was “apparently most active when administered every other day from day 4 to day 24” and the IL-2 ([3]; Exp I, 3 μM) was 29. It also gave an IL-2 ([3]; Exp I, 9 μM) of 46, an IL-2 ([3]; Exp I, 27 μM) of 30 and an IL-2 ([3]; Exp I, 81 μM) of 42. For the same compound, the IL-2 ([3]; Exp I, 244 μM) was 17, the IL-2 ([3]; Exp I, 733 μM) was 17 and the IL-2 ([3]; Exp I, 2.2 mM) was 9. For the same compound, the IL-2 ([3]; Exp I, 6.7 mM) was under 6, the IL-2 ([3]; Exp I, 20 mM) was under 6 and the IL-2 ([3]; Exp II, 3 μM) was 70. For the same compound, the IL-2 ([3]; Exp II, 9 μM) was 85, the IL-2 ([3]; Exp II, 27 μM) was 52 and the IL-2 ([3]; Exp II, 81 μM) was 70. For the same compound, the IL-2 ([3]; Exp II, 244 μM) was 52, the IL-2 ([3]; Exp II, 733 μM) was 70 and the IL-2 ([3]; Exp II, 2.2 mM) was 35. The IL-2 ([3]; Exp II, 6.7 mM) was under 12, the IL-2 ([3]; Exp II, 20 mM) was under 12 and the IC50 ([3]; Homo sapiens, HT2, primary MLR, read-out: concentration causing 50% reduction in IL-2 production) was about 2200 µM. The CPM ([4]; Exp I, 247 μM) was 73805 CPM, the CPM ([4]; Exp I, 740 μM) was 61568 CPM and the CPM ([4]; Exp I, 2.2 mM) was 1995 CPM. The CPM ([4]; Exp I, 6.7 mM) was 112 CPM, the CPM ([4]; Exp I, 20 mM) was 76 CPM and the CPM ([4]; Exp II, 247 μM) was 86893 CPM. It also gave a CPM ([4]; Exp II, 740 μM) of 88958 CPM, a CPM ([4]; Exp II, 2.2 mM) of 43264 CPM and a CPM ([4]; Exp II, 6.7 mM) of 4402 CPM. The CPM ([4]; Exp II, 20 mM) was 134 CPM, the inhibition at 740 µM ([4]; Exp I, 740 μM) was 23.6% and the inhibition at 2200 µM ([4]; Exp I, 2.2 mM) was 97.5%. The inhibition at 6700 µM ([4]; Exp I, 6.7 mM) was 9.99%, the inhibition at 20000 µM ([4]; Exp I, 20 mM) was 9.99% and the inhibition at 740 µM ([4]; Exp II, 740 μM) was 4.8%. For the same compound, the inhibition at 2200 µM ([4]; Exp II, 2.2 mM) was 53.7%, the inhibition at 6700 µM ([4]; Exp II, 6.7 mM) was 95.3% and the inhibition at 20000 µM ([4]; Exp II, 20 mM) was 9.99%.
